Experimental data taken from ChEMBL document CHEMBL1144487 (Bioorg Med Chem, 2007).

Assays:
[1] = Cytotoxicity against rat NRK 52E cells after 5 days; type: cell-based; settings: read-out: LC50
[2] = Cytotoxicity against rat K-ras transformed NRK K/1 cells after 5 days; type: cell-based; settings: NRK K/1, 120 h, read-out: LC50 (the source's name)
[3] = Cytotoxicity against rat H-ras transformed NRK H/1.2 cells after 5 days; type: cell-based; settings: NRK H/1.2, 120 h, read-out: LC50 (the source's name)
[4] = Cytotoxicity against rat N-ras transformed NRK N/4.2 cells after 5 days; type: cell-based; settings: NRK N/4.2, 120 h, read-out: LC50 (the source's name)
[5] = Cytotoxicity against mouse 3LL cells after 5 days; type: cell-based; settings: 120 h, read-out: LC50 (the source's name)
[6] = Differential index, LC50 for rat NRK 52E cells to LC50 for rat K-ras transformed NRK K/1 cells; type: ADME, cell-based; settings: NRK 52E cells versus K-ras transformed NRK K/1 cells
[7] = Differential index, LC50 for rat NRK 52E cells to LC50 for rat H-ras transformed NRK H/1.2 cells; type: ADME, cell-based; settings: NRK 52E cells versus H-ras transformed NRK H/1.2 cells
[8] = Differential index, LC50 for rat NRK 52E cells to LC50 for rat N-ras transformed NRK N/4.2 cells; type: ADME, cell-based; settings: NRK 52E cells versus N-ras transformed NRK N/4.2 cells
[9] = Differential index, LC50 for rat NRK 52E cells to LC50 for mouse 3LL cells; type: ADME, cell-based; settings: NRK 52E cells versus 3LL cells

CC(=O)NC1=CC(=O)c2ccc(-c3nc(C(=O)OCCC(C)C)c(C)c4c3[nH]c3ccccc34)nc2C1=O
CC50 at 120 h [1]: 4160 nM
CC50 [2]: 5000 nM
CC50 [3]: 4300 nM
CC50 [4]: 3890 nM
CC50 [5]: 7400 nM
selectivity ratio [6]: 0.9
selectivity ratio [7]: 1.1
selectivity ratio [8]: 1.2
selectivity ratio [9]: 0.6

CC(=O)NC1=CC(=O)c2ccc(-c3nc(C(=O)OCCN(C)C)c(C)c4c3[nH]c3ccccc34)nc2C1=O
CC50 at 120 h [1]: 90 nM
CC50 [2]: 60 nM
CC50 [3]: 90 nM
CC50 [4]: 90 nM
CC50 [5]: 480 nM
selectivity ratio [6]: 1.5
selectivity ratio [7]: 1
selectivity ratio [8]: 1
selectivity ratio [9]: 0.2

CCCCOC(=O)c1cc2c([nH]c3ccccc32)c(-c2ccc3c(n2)C(=O)C(NC(=O)C(C)C)=CC3=O)n1
CC50 at 120 h [1]: 900 nM
CC50 [2]: 400 nM
CC50 [3]: 610 nM
CC50 [4]: 500 nM
CC50 [5]: 900 nM
selectivity ratio [6]: 2.3
selectivity ratio [7]: 1.5
selectivity ratio [8]: 1.8
selectivity ratio [9]: 1

CC(=O)NC1=CC(=O)c2ccc(-c3[nH]ccc4c5ccccc5nc3-4)nc2C1=O
CC50 at 120 h [1]: 400 nM
CC50 [2]: 440 nM
CC50 [3]: 400 nM
CC50 [4]: 490 nM
CC50 [5]: 3000 nM
selectivity ratio [6]: 0.9
selectivity ratio [7]: 1
selectivity ratio [8]: 0.8
selectivity ratio [9]: 0.1

CC(=O)NC1=CC(=O)c2ccc(-c3[nH]c(C(=O)O)cc4c5ccccc5nc3-4)nc2C1=O
CC50 at 120 h [1]: 150 nM
CC50 [2]: 70 nM
CC50 [3]: 110 nM
CC50 [4]: 100 nM
CC50 [5]: 400 nM
selectivity ratio [6]: 2.1
selectivity ratio [7]: 1.4
selectivity ratio [8]: 1.5
selectivity ratio [9]: 0.4

Cc1ccc2c(n1)C(=O)C(N)=CC2=O
CC50 at 120 h [1]: 800 nM
CC50 [2]: 1300 nM
CC50 [3]: 600 nM
CC50 [5]: 800 nM

Cc1ccc2c(n1)C(=O)C(NCCCCO)=CC2=O
CC50 at 120 h [1]: 10500 nM
CC50 [2]: 13500 nM
CC50 [3]: 10500 nM
CC50 [5]: 3800 nM

CC(=O)NC1=CC(=O)c2nc(C)ccc2C1=O
CC50 at 120 h [1]: 21500 nM
CC50 [2]: > 33000 nM
CC50 [3]: 20000 nM
CC50 [5]: > 33000 nM

COC(=O)c1cc2c([nH]c3ccccc32)c(-c2ccc3c(n2)C(=O)C(NC(C)=O)=CC3=O)n1
CC50 at 120 h [1]: 500 nM
CC50 [2]: 110 nM
CC50 [3]: 510 nM
CC50 [4]: 520 nM
CC50 [5]: 840 nM
selectivity ratio [6]: 4.5
selectivity ratio [7]: 1
selectivity ratio [8]: 1
selectivity ratio [9]: 0.6

CCCC(=O)NC1=CC(=O)c2ccc(-c3nc(C(=O)OC)c(C)c4c3[nH]c3ccccc34)nc2C1=O
CC50 at 120 h [1]: 320 nM
CC50 [2]: 330 nM
CC50 [3]: 400 nM
CC50 [4]: 420 nM
CC50 [5]: 820 nM
selectivity ratio [6]: 1
selectivity ratio [7]: 0.8
selectivity ratio [8]: 0.8
selectivity ratio [9]: 0.4

CC(=O)NC1=CC(=O)c2ccc(-c3[nH]c(CO)cc4c5ccccc5nc3-4)nc2C1=O
CC50 at 120 h [1]: 250 nM
CC50 [2]: 200 nM
CC50 [3]: 200 nM
CC50 [4]: 220 nM
CC50 [5]: 440 nM
selectivity ratio [6]: 1.2
selectivity ratio [7]: 1.2
selectivity ratio [8]: 1.1
selectivity ratio [9]: 0.6

CCCCOC(=O)c1cc2c([nH]c3ccc(F)cc32)c(-c2ccc3c(n2)C(=O)C(NC(C)=O)=CC3=O)n1
CC50 at 120 h [1]: 620 nM
CC50 [2]: 330 nM
CC50 [3]: 700 nM
CC50 [4]: 840 nM
CC50 [5]: 2100 nM
selectivity ratio [6]: 1.9
selectivity ratio [7]: 0.9
selectivity ratio [8]: 0.8
selectivity ratio [9]: 0.3

CC(C)CCOC(=O)c1cc2c([nH]c3ccccc32)c(-c2ccc3c(n2)C(=O)C(NC(=O)CCl)=CC3=O)n1
CC50 at 120 h [1]: 1350 nM
CC50 [2]: 560 nM
CC50 [3]: 1320 nM
CC50 [4]: 1200 nM
CC50 [5]: 3200 nM
selectivity ratio [6]: 2.4
selectivity ratio [7]: 1
selectivity ratio [8]: 1.1
selectivity ratio [9]: 0.4

COC1=CC(=O)c2ccc(C)nc2C1=O
CC50 at 120 h [1]: 6900 nM
CC50 [2]: 11800 nM
CC50 [3]: 4200 nM
CC50 [5]: 7400 nM

CCOC(=O)c1cc2c([nH]c3ccccc32)c(-c2ccc3c(n2)C(=O)C(NC(C)=O)=CC3=O)n1
CC50 at 120 h [1]: 300 nM
CC50 [2]: 40 nM
CC50 [3]: 360 nM
CC50 [4]: 200 nM
CC50 [5]: 3200 nM
selectivity ratio [6]: 7.5
selectivity ratio [7]: 0.8
selectivity ratio [8]: 0.7
selectivity ratio [9]: 0.1

CCCCOC(=O)c1cc2c([nH]c3ccccc32)c(-c2ccc3c(n2)C(=O)C(NC(=O)CCl)=CC3=O)n1
CC50 at 120 h [1]: 960 nM
CC50 [2]: 520 nM
CC50 [3]: 740 nM
CC50 [4]: 1050 nM
CC50 [5]: 2300 nM
selectivity ratio [6]: 1.8
selectivity ratio [7]: 1.3
selectivity ratio [8]: 0.9
selectivity ratio [9]: 0.4

CCCC(=O)NC1=CC(=O)c2ccc(-c3nc(C(=O)OC)cc4c3[nH]c3ccccc34)nc2C1=O
CC50 at 120 h [1]: 700 nM
CC50 [2]: 500 nM
CC50 [3]: 660 nM
CC50 [4]: 640 nM
CC50 [5]: 1300 nM
selectivity ratio [6]: 1.4
selectivity ratio [7]: 1.1
selectivity ratio [8]: 1.1
selectivity ratio [9]: 0.5

CC(=O)NC1=CC(=O)c2ccc(-c3nc(C(=O)OC4CCCCC4)cc4c3[nH]c3ccccc34)nc2C1=O
CC50 at 120 h [1]: 700 nM
CC50 [2]: 400 nM
CC50 [3]: 690 nM
CC50 [4]: 700 nM
CC50 [5]: 1000 nM
selectivity ratio [6]: 1.7
selectivity ratio [7]: 1
selectivity ratio [8]: 1
selectivity ratio [9]: 0.7

CCCC(=O)NC1=CC(=O)c2ccc(-c3nc(C(=O)OCCC(C)C)cc4c3[nH]c3ccccc34)nc2C1=O
CC50 at 120 h [1]: 1000 nM
CC50 [2]: 600 nM
CC50 [3]: 370 nM
CC50 [4]: 650 nM
CC50 [5]: 2400 nM
selectivity ratio [6]: 1.6
selectivity ratio [7]: 2.7
selectivity ratio [8]: 1.5
selectivity ratio [9]: 0.4

CC(C)C(=O)NC1=CC(=O)c2ccc(C=O)nc2C1=O
CC50 at 120 h [1]: > 3300 nM
CC50 [2]: 2150 nM
CC50 [3]: > 3300 nM
CC50 [4]: > 3300 nM
CC50 [5]: 1000 nM

CC(=O)NC1=CC(=O)c2ccc(C=O)nc2C1=O
CC50 at 120 h [1]: 1300 nM
CC50 [2]: 2600 nM
CC50 [3]: 2500 nM
CC50 [5]: 1200 nM

COC(=O)c1cc2c([nH]c3ccccc32)c(-c2ccc3c(n2)C(=O)C(NC(=O)C(C)C)=CC3=O)n1
CC50 at 120 h [1]: 700 nM
CC50 [2]: 500 nM
CC50 [3]: 660 nM
CC50 [4]: 640 nM
CC50 [5]: 1300 nM
selectivity ratio [6]: 1.4
selectivity ratio [7]: 1.1
selectivity ratio [8]: 1.1
selectivity ratio [9]: 0.5

CCCCCCCCOC(=O)c1cc2c([nH]c3ccccc32)c(-c2ccc3c(n2)C(=O)C(NC(=O)CCl)=CC3=O)n1
CC50 at 120 h [1]: > 33000 nM
CC50 [2]: 15000 nM
CC50 [3]: > 33000 nM
CC50 [4]: > 33000 nM
CC50 [5]: > 33000 nM
selectivity ratio [6]: > 2.2
selectivity ratio [8]: 1

COC(=O)c1nc(-c2ccc3c(n2)C(=O)C(NC(=O)CCl)=CC3=O)c2[nH]c3ccccc3c2c1C
CC50 at 120 h [1]: 580 nM
CC50 [2]: 790 nM
CC50 [3]: 580 nM
CC50 [4]: 700 nM
CC50 [5]: 2000 nM
selectivity ratio [6]: 0.7
selectivity ratio [7]: 1
selectivity ratio [8]: 0.8
selectivity ratio [9]: 0.3

Cc1ccc2c(n1)C(=O)C(NC(=O)CCl)=CC2=O
CC50 at 120 h [1]: 3200 nM
CC50 [2]: 6600 nM
CC50 [3]: 2800 nM
CC50 [4]: 3400 nM
CC50 [5]: 2300 nM

CC(=O)NC1=CC(=O)c2ccc(-c3nc(C(=O)OCCN(C)C)cc4c3[nH]c3ccccc34)nc2C1=O
CC50 at 120 h [1]: 370 nM
CC50 [2]: 140 nM
CC50 [3]: 240 nM
CC50 [4]: 290 nM
CC50 [5]: 500 nM
selectivity ratio [6]: 2.6
selectivity ratio [7]: 1.5
selectivity ratio [8]: 1.3
selectivity ratio [9]: 0.7

CCCCOC(=O)c1cc2c([nH]c3ccc(OC)cc32)c(-c2ccc3c(n2)C(=O)C(NC(C)=O)=CC3=O)n1
CC50 at 120 h [1]: 2500 nM
CC50 [2]: 2200 nM
CC50 [3]: 2100 nM
CC50 [4]: 2200 nM
CC50 [5]: > 3300 nM
selectivity ratio [6]: 1.1
selectivity ratio [7]: 1.2
selectivity ratio [8]: 1.1
selectivity ratio [9]: < 0.7

Cc1ccc2c(n1)C(=O)C(NC(=O)C(C)C)=CC2=O
CC50 at 120 h [1]: 1500 nM
CC50 [2]: 7500 nM
CC50 [3]: 1450 nM
CC50 [4]: 1150 nM
CC50 [5]: 710 nM

NC1=CC(=O)c2ccc(C=O)nc2C1=O
CC50 at 120 h [1]: 2400 nM
CC50 [2]: 4300 nM
CC50 [3]: 2200 nM
CC50 [5]: 2300 nM

O=Cc1ccc2c(n1)C(=O)C(NC(=O)CCl)=CC2=O
CC50 at 120 h [1]: 3600 nM
CC50 [2]: 5800 nM
CC50 [3]: 3400 nM
CC50 [4]: 3200 nM
CC50 [5]: 2100 nM

CC(=O)NC1=CC(=O)c2ccc(C(=O)O)nc2C1=O
CC50 at 120 h [1]: > 33000 nM
CC50 [2]: > 33000 nM
CC50 [3]: > 31000 nM
CC50 [5]: 26000 nM

CC(=O)NC1=CC(=O)c2ccc(-c3nc(C(=O)OCc4ccccc4)cc4c3[nH]c3ccccc34)nc2C1=O
CC50 at 120 h [1]: 9500 nM
CC50 [2]: 9500 nM
CC50 [3]: > 10000 nM
CC50 [4]: > 33000 nM
CC50 [5]: > 33000 nM
selectivity ratio [6]: 1
selectivity ratio [7]: < 0.9
selectivity ratio [8]: < 0.3
selectivity ratio [9]: < 0.3

CC(=O)NC1=CC(=O)c2cc(C)cnc2C1=O
CC50 at 120 h [1]: 1300 nM
CC50 [2]: 1800 nM
CC50 [3]: 1100 nM
CC50 [5]: 1000 nM
